For 13 compounds, Ratio IC50, IC50 and Selectivity ratio results are on record in ChEMBL document CHEMBL4007475, “Green synthesis of novel spiro-indenoquinoxaline derivatives and their cholinesterases inhibition activity” (Bioorg Med Chem, 2017).

The species entered for assay [1] is Homo sapiens. The assay can be described thus: Selectivity index, ratio of IC50 for acetylcholinesterase (unknown origin) to IC50 for butyrylcholinesterase (unknown origin).
Assay [2] has as its system HepG2. The assay can be described thus: Cytotoxicity against human HepG2 cells after 48 hrs by MTT assay. In kind it is cell-based. To be noted: HepG2, 48 h. On the technique in general: Formazan colour is commonly taken as a measure of viable cells.
Assay [3] deals with Acetylcholinesterase (Homo sapiens, UniProt P22303). The assay can be described thus: Inhibition of acetylcholinesterase (unknown origin) using acetylthiocholine as substrate preincubated for 20 mins followed by substrate addition by Ellmans method.
Chain of Acetylcholinesterase (P22303 whole entry): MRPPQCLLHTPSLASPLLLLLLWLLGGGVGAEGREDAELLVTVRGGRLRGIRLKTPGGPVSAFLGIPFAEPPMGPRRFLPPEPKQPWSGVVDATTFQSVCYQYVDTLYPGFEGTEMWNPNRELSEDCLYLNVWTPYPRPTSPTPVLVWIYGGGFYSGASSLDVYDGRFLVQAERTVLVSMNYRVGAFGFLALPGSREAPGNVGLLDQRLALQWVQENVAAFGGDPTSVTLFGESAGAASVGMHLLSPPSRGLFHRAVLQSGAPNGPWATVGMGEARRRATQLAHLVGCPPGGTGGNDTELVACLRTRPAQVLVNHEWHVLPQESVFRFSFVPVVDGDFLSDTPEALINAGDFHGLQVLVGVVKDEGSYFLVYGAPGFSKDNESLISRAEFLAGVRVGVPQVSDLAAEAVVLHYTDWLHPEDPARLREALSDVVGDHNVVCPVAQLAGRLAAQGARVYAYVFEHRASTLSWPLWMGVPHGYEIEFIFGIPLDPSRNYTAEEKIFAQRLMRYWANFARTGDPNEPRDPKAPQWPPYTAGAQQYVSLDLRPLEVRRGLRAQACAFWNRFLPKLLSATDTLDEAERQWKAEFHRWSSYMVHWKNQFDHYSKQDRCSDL
Assay [4] is filed under the species Homo sapiens. The assay can be described thus: Selectivity index, ratio of IC50 for butyrylcholinesterase (unknown origin) to IC50 for acetylcholinesterase (unknown origin).
Assay [5] deals with Cholinesterase (Homo sapiens, UniProt P06276). As to the kind of experiment: Inhibition of butyrylcholinesterase (unknown origin) using acetylthiocholine as substrate preincubated for 20 mins followed by substrate addition by Ellmans method.
Chain of Cholinesterase (P06276 whole entry): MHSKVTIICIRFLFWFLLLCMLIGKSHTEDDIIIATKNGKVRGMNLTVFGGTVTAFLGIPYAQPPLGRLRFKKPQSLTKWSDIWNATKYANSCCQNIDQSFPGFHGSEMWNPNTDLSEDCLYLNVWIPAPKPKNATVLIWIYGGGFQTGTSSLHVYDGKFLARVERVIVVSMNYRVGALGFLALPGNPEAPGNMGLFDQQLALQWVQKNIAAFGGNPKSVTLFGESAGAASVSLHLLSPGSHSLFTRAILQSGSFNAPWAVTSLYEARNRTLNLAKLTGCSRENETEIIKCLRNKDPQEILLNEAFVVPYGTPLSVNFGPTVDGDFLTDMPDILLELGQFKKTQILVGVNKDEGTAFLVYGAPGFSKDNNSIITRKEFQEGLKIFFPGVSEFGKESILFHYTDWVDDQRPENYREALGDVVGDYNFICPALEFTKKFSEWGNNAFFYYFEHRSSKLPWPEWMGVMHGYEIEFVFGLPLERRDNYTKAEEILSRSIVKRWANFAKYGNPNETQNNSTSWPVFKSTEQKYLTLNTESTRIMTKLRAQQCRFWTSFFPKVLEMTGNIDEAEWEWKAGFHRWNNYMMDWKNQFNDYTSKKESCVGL
For assay [6], the species on record is Homo sapiens. As to the kind of experiment: Selectivity for acetylcholinesterase (unknown origin) over butyrylcholinesterase (unknown origin).

Molecules are shown by their SMILES.

In the case of `CC1(C)CNC2=C([N+](=O)[O-])C3(C(C#N)=C(N)N2C1)c1ccccc1-c1nc2ccc([N+](=O)[O-])cc2nc13` (stereo unspecified), the Ratio IC50 amounted to 0.356 in assay [1] and 2.81 in assay [4]. The IC50 was found to be 169 µM in assay [2], 3.6 µM in assay [3] and 10.1 µM in assay [5].

For `N#CC1=C(N)N(Cc2ccccc2)C(NCc2ccccc2)=C([N+](=O)[O-])C12c1ccccc1-c1nc3ccc([N+](=O)[O-])cc3nc12` (stereo unspecified), the Ratio IC50 in assay [1] stood at 0.483; in assay [4], 2.07. Further, the IC50 is 167 µM in assay [2], 4.4 µM in assay [3] and 9.1 µM in assay [5].

With `Cc1cc2nc3c(nc2cc1C)C1(C(C#N)=C(N)N2CCNC2=C1[N+](=O)[O-])c1ccccc1-3` (stereo unspecified), the Ratio IC50 is 0.904 in assay [1] and 1.11 in assay [4]. Further, the IC50 in assay [2] amounted to 176 µM; in assay [3] it was 6.6 µM; in assay [5], 7.3 µM.

Turning to `Cc1cc2nc3c(nc2cc1C)C1(C(C#N)=C(N)N2CCCNC2=C1[N+](=O)[O-])c1ccccc1-3` (stereo unspecified), the Ratio IC50 in assay [1] worked out at 0.6; in assay [4], 1.67. For the same compound, the figures for the IC50 in assay [2], in assay [3] and in assay [5] were 171 µM, 5.7 µM and 9.5 µM, respectively.

With `N#CC1=C(N)N2CCCNC2=C([N+](=O)[O-])C12c1ccccc1-c1nc3ccc([N+](=O)[O-])cc3nc12` (stereo unspecified), the Ratio IC50 in assay [1] came to 0.402; in assay [4], 2.49. Also, the IC50 in assay [2] was found to be 161 µM; in assay [3], 3.9 µM; in assay [5] it was 9.7 µM.

With `N#CC1=C(N)N2CCNC2=C([N+](=O)[O-])C12c1ccccc1-c1nc3ccccc3nc12` (stereo unspecified), the values for the Ratio IC50 in assay [1] and in assay [4] were 0.761 and 1.31, respectively. Also, the figures for the IC50 in assay [2], in assay [3] and in assay [5] were 194 µM, 6.4 µM and 8.4 µM, respectively.

For the compound `N#CC1=C(N)N2CCCNC2=C([N+](=O)[O-])C12c1ccccc1-c1nc3ccccc3nc12` (stereo unspecified), the Ratio IC50 in assay [1] came out at 0.411; in assay [4], 2.43. Also, the IC50 in assay [2] came out at 174 µM; in assay [3], 4.2 µM; in assay [5], 10.2 µM.

With `CC1(C)CNC2=C([N+](=O)[O-])C3(C(C#N)=C(N)N2C1)c1ccccc1-c1nc2ccccc2nc13` (stereo unspecified), the Ratio IC50 turned out to be 0.438 in assay [1] and 2.28 in assay [4]. Further, the IC50 in assay [2] was determined as 184 µM; in assay [3], 4.3 µM; in assay [5], 9.8 µM.

Consider `Cc1cc2nc3c(nc2cc1C)C1(C(C#N)=C(N)N2CC(C)(C)CNC2=C1[N+](=O)[O-])c1ccccc1-3` (stereo unspecified), for which the Ratio IC50 in assay [1] was found to be 0.454; in assay [4], 2.2. Also, the IC50 in assay [2] is 180 µM; in assay [3], 4 µM; in assay [5] it was 8.8 µM.

With `COc1cc2c(cc1OC)C(=O)C(CC1CCN(Cc3ccccc3)CC1)C2` (stereo unspecified), in assay [6], the Selectivity ratio was 10000.

As for `N#CC1=C(N)N(Cc2ccccc2)C(NCc2ccccc2)=C([N+](=O)[O-])C12c1ccccc1-c1nc3ccccc3nc12` (stereo unspecified), the Ratio IC50 in assay [1] was 0.616; in assay [4], 1.62. Also, the values for the IC50 in assay [2], in assay [3] and in assay [5] were 190 µM, 5.3 µM and 8.6 µM, respectively.

With `Cc1cc2nc3c(nc2cc1C)C1(C(C#N)=C(N)N(Cc2ccccc2)C(NCc2ccccc2)=C1[N+](=O)[O-])c1ccccc1-3` (stereo unspecified), the Ratio IC50 in assay [1] was 0.651; in assay [4], 1.53. The IC50 came to 174 µM in assay [2], 5.8 µM in assay [3] and 8.9 µM in assay [5].

Regarding `N#CC1=C(N)N2CCNC2=C([N+](=O)[O-])C12c1ccccc1-c1nc3ccc([N+](=O)[O-])cc3nc12` (stereo unspecified), the results for the Ratio IC50 in assay [1] and in assay [4] were 0.677 and 1.48, respectively. Further, the half-maximal inhibitory concentration (IC50) stood at 174 µM in assay [2], 6.5 µM in assay [3] and 9.6 µM in assay [5].

The term IC50 denotes the concentration at which inhibition is half-maximal. A high value points to weaker potency in that assay.
